Reference: US20240216370A1, “TREATMENT OF CORNEAL VASCULARISATION” (VESTLANDETS INNOVASJONSSELSKAP AS, priority 2020, published 2024)
“Also recorded” adds a separate entry of the source.

What was measured:
[1] = tested on: OPDKD patient; test: Oral (systemic) imatinib treatment of an OPDKD patient, effect in the eye; type: in vivo, human; details: systemic imatinib for almost one year, 6 months at maximal recommended dose of 800 mg
[2] = target: T1, PDGFRβ (N666Y) (Homo sapiens, UniProt P09619, N666Y); test: ELISA analysis of phosphorylated PDGFRβ in OPDKD patient fibroblasts; type: cell-based
T1 construct: Fibroblasts from affected individuals and healthy controls were obtained; endogenous in cells; host or cells: fibroblasts from OPDKD patients
Procedure: Fibroblasts from affected individuals and healthy controls were obtained. Transgenic HeLa cells were transduced with a murine retroviral vector containing the PDGFRβ (NM_002609.3) c.wt, c. 1996A>T (OPDKD) and c.1997A>G (a different activating mutation associated with severe Penttinen syndrome) variants.
In OPDKD, the affected parts of the body (corneas and skin, particular fingers and toes) are all exposed to variable temperatures. ^8 At a typical room temperature (20-22° C.) corneal temperatures lie around 32-34° and fall to around 30° C. as air temperatures reaches 0° C. ^9 We studied the effect of this physiological temperature difference on PDGFRβ auto-phosphorylation and signaling in OPDKD. Cells were either kept at 37° ° C. or incubated overnight at 32° C. […] For ELISA analysis of phosphorylated PDGFRβ, a DuoSet® IC Phospho-PDGFRβ kit (R&D systems) was used. Cell lysates were also subjected to immunoblot analysis with primary antibodies against downstream signaling partners: phospho-Ser473-AKT, phospho-Thr308-AKT, phospho-Tyr70-STAT1, STAT1, phospho-Tyr783-PLCγ1, PLCγ1, phospho-Thr202/Tyr204-MAPK3/ERK1 and MAPK3/ERK1 (all from Cell Signaling Technology). […]

[3] = tested on: AKT; test: Immunoblot of downstream signaling partner AKT (phospho-Ser473, phospho-Thr308) in patient fibroblasts; type: cell-based, human; details: 0.1 μM imatinib
Procedure: Cells were either kept at 37° ° C. or incubated overnight at 32° C. Cells were then left untreated or treated with 0.1 μM imatinib (STI571, Selleckchem) for 6 hours. For ELISA analysis of phosphorylated PDGFRβ, a DuoSet® IC Phospho-PDGFRβ kit (R&D systems) was used. Cell lysates were also subjected to immunoblot analysis with primary antibodies against downstream signaling partners: phospho-Ser473-AKT, phospho-Thr308-AKT, phospho-[MUT]-STAT1, STAT1, phospho-[MUT]-PLCγ1, PLCγ1, phospho-Thr202/Tyr204-MAPK3/ERK1 and MAPK3/ERK1 (all from Cell Signaling Technology).

T1 sequence (P09619 33-1106 N666Y): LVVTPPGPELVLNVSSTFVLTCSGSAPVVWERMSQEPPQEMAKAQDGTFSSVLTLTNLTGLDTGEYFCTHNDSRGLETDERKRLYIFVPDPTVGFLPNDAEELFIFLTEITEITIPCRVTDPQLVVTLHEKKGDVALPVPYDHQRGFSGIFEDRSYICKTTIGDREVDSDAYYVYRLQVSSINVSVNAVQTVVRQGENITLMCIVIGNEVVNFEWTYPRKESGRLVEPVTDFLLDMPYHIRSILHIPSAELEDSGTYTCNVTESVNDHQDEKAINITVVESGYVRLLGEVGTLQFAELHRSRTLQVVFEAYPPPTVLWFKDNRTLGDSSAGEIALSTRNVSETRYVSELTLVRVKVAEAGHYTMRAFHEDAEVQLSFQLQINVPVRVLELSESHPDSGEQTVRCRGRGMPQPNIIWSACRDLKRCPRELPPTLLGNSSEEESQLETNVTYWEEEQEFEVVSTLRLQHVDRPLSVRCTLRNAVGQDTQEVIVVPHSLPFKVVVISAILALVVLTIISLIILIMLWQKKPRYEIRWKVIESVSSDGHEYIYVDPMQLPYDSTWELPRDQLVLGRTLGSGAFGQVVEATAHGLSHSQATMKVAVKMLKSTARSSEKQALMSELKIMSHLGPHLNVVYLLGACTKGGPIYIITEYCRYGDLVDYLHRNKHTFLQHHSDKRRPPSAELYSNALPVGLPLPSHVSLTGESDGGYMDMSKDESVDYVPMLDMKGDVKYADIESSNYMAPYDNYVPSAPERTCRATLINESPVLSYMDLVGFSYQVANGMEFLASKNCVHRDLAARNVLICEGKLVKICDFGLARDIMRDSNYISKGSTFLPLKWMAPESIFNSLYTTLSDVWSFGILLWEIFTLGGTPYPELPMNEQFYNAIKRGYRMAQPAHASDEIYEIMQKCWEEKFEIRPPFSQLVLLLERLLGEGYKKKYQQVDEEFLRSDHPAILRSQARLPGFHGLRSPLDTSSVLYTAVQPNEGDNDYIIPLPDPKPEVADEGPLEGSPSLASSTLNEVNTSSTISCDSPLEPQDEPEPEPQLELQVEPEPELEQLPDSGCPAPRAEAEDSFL

sensitivity of OPDKD fibroblasts compared with Penttinen fibroblasts ([2]; OPDKD (N666Y) vs Penttinen (N666S) fibroblasts): less sensitive
effect on levels of P-PDGFRβ and downstream proteins ([2]; OPDKD fibroblasts, imatinib, 6 hours): clear, dose dependent effect
levels of phosphorylated PDGFRβ ([2]; patient fibroblasts, high doses of imatinib (1 μM)): normalization
Compound: Cc1ccc(NC(=O)c2ccc(CN3CCN(C)CC3)cc2)cc1Nc1nccc(-c2cccnc2)n1 [imatinib]
effect of the drug on the eye of an OPDKD patient [1]: no effect; also recorded: without effect
phosphorylation of Ser473 and Thr308 AKT [3]: Normalization
